Columns and labels:
Test in all cases: relative viability (nuclei count vs DMSO), 5 days (fraction); higher = more cells survive
[1] = compound: CC(C)CCN1c2nc(Nc3cc(F)c(O)c(F)c3)ncc2N(C)C(=O)C1C [BI-D1870]
Procedure, shortened: (§1)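 Lung cancer cell lines in 1536-well plates were kept overnight at 37 °C, then pinned with five library-drug doses (not always all listed) spaced by √10 on vehicle-anchored plates. After 5 days without medium change, cells were fixed, permeabilised and Hoechst-stained in one step, imaged at 4×, and nuclei were counted with MetaXpress. Viability is treated-well nuclei divided by vehicle-well nuclei, taken as the median over plates. Plates passed only with control CV below 25% and at least one doubling.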

[2] = compound: O=c1ncccn1[C@@H]1O[C@H](CO)[C@@H](O)[C@H]1O [Zebularine]
Procedure, shortened: as §1

[3] = compound: CC(C)CCN1c2nc(Nc3cc(F)c(O)c(F)c3)ncc2N(C)C(=O)C1C [BI-D1870] + CC1(C)CCC(c2ccc(Cl)cc2)=C(CN2CCN(c3ccc(C(=O)NS(=O)(=O)c4ccc(N[C@H](CCN5CCOCC5)CSc5ccccc5)c(S(=O)(=O)C(F)(F)F)c4)cc3)CC2)C1 [Navitoclax] (partner 0.5 µM)
Procedure, shortened: (§2)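 Dosing by pin tool came one day after lung cancer cell lines were seeded in 1536-well plates, using either one drug or a fixed anchor-drug dose plus five library-drug doses (not always all listed) in √10 steps. After 5 days, nuclei were counted on 4× images. Relative viability is treated-well nuclei count divided by vehicle-well nuclei count, and values are medians of duplicate plates.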

[4] = compound: CC(C)CCN1c2nc(Nc3cc(F)c(O)c(F)c3)ncc2N(C)C(=O)C1C [BI-D1870] + COc1cc2c(Oc3ccc(NC(=O)C4(C(=O)Nc5ccc(F)cc5)CC4)cc3F)ccnc2cc1OCCCN1CCOCC1 [Foretinib] (partner 0.25 µM)
Procedure, shortened: as §2

Cell Line	relative viability ([1]; 0.04 µM)	relative viability ([1]; 0.1265 µM)	relative viability ([1]; 0.4 µM)	relative viability ([1]; 1.265 µM)	relative viability ([1]; 4 µM)	relative viability ([2]; 1 µM)	relative viability ([2]; 3.162 µM)	relative viability ([2]; 10 µM)	relative viability ([2]; 31.62 µM)	relative viability ([2]; 100 µM)	relative viability ([3]; first compound 0.04 µM)	relative viability ([3]; first compound 0.1265 µM)	relative viability ([3]; first compound 0.4 µM)	relative viability ([3]; first compound 1.265 µM)	relative viability ([3]; first compound 4 µM)	relative viability ([4]; first compound 0.04 µM)	relative viability ([4]; first compound 0.1265 µM)	relative viability ([4]; first compound 0.4 µM)	relative viability ([4]; first compound 1.265 µM)	relative viability ([4]; first compound 4 µM)
NCI-H1650	0.9	0.765	1	0.96	0.807	1.03	0.904	0.766	1.15	0.727	1.26	1.05	1.23	1.34	1.15	1.31	0.756	1.08	1.18	1.27
NCI-H1395	0.905	0.822	0.87	0.988	0.827	0.929	0.86	0.788	0.676	0.511	1.16	1.12	1.36	1.01	0.871	1.03	0.92	0.964	1.05	0.981
LU99A	1.01	0.822	0.98	0.827	0.77	1.06	0.997	0.883	0.689	0.246	0.805	0.744	0.798	0.961	0.911	0.913	0.683	0.696	0.788	0.796
NCI-H1355	1.06	0.917	0.958	1.11	0.861	1.06	0.955	0.749	0.62	0.33	0.959	0.959	0.988	1.05	1.03	1.05	0.863	0.91	1.07	0.967
HCC-78	0.952	1	0.97	1.16	0.875	1.07	0.945	0.626	0.916	0.387	0.736	0.825	0.81	0.987	0.778	0.599	0.522	0.529	0.592	0.481
HCC-15	1.02	0.935	0.93	1.02	0.725	1.11	0.974	0.752	0.906	0.497	0.685	0.656	0.681	0.721	0.459	1.11	0.911	1	0.921	0.599
EKVX	1.06	0.94	0.889	1.11	0.931	1.04	0.961	–	1.03	0.985	1.01	0.909	0.889	1	0.922	1.3	0.593	0.619	0.935	0.371
NCI-H2087	1.13	0.977	1.15	1.21	0.78	1.04	0.949	0.747	0.894	0.381	1.14	1.01	1.06	1.09	0.802	1.16	1.23	1.27	1.12	0.982
LK-2	1.14	1	1.28	1.21	0.973	1	1.03	0.556	0.544	0.392	1.22	0.885	0.964	1.05	0.945	1.32	1.13	1.34	1.51	1.6
NCI-H1437	1.02	0.906	0.992	1.04	0.9	1.07	1	0.761	0.97	0.641	1.19	1.06	1.11	1.03	0.973	1.35	1.24	1.19	1.25	1.14
COR-L23	1.12	0.945	1.09	1.13	0.83	1.07	1.05	0.484	0.504	0.177	1.15	0.951	1.06	1.1	0.479	1.01	0.894	0.938	1.01	0.905
NCI-H838	0.962	0.892	0.958	1.07	0.992	1.05	0.962	0.753	0.692	0.352	1.28	1.04	1.12	1.29	1.21	1.12	1.01	1.05	1.16	1.15
A549	1.06	0.908	0.975	1.04	0.848	1.08	0.913	0.519	0.75	0.155	1.31	1.15	1.28	1.15	0.123	1.08	0.958	1.01	0.963	0.747
A-427	1.18	0.945	0.997	1.04	0.801	1.11	0.898	0.65	0.55	0.267	1.1	0.958	0.922	0.997	0.999	1.14	0.895	0.991	1.11	1.13
LCLC-97TM1	1.3	0.978	0.756	1.1	0.841	1.03	0.913	0.652	0.335	0.143	0.407	0.398	0.574	0.364	0.613	1.1	0.975	0.893	1.09	0.843
NCI-H1703	0.92	0.708	0.905	1.02	0.806	0.856	0.815	0.606	0.899	0.667	1.1	0.846	1.02	1.28	0.745	0.381	–	0.295	0.355	0.385

— the supplement of paper PMC10307832
